Source: patent US4737361A, “Alpha adrenergic amine of substantial alpha2 adrenergic amine activity as an antiperspirant” (Bristol-Myers Company, priority 1986, dated 1988)
Structures can show the parent of a compound that is named as a salt.

Legend:
[1] = test system: sweat glands; experiment: rat foot pad sweat inhibition (starch-iodine count of secreting sweat glands, test foot vs control foot); format: in vivo, Sprague Dawley rats; details: for Approx. % Inhibition: topical, rat hind foot pads, 40 minutes post treatment
Procedure: A series of test solutions were prepared by dissolving various quantities of xylometazoline HCl, oxymetazoline HCl and naphazoline HCl in freshly prepared distilled water. In the case of xylometazoline HCl 0.003%, 0.03%, 0.15% and 0.3% solutions were prepared. In the cases for oxymetazoline HCl and naphazoline HCl 0.15% solutions were made. The control material is distilled water.
A. Prior to testing, rats are routinely acclimated to the laboratory environment for seven days and gross observations are made to ensure good health of animals to be tested.
B. Sprague Dawley rats, male and/or female (175-250 gm) are selected for test and identified by cage label and ear tag number.
C. A minimum of 6 animals is used in testing each solution.
A. Test room should be maintained at a temperature of 78°±2° F.
1. Test animals are injected intramuscularly with Innovar Vet™ (0.01 ml/100 gm body wt.) by use of a 0.25 ml tuberculin syringe with a 26 or 27 gauge needle. Animals are then returned to their cages.
3. Both hind feet are then swabbed with 70% ethyl alcohol (ETOH) to remove any debris.
4. The four interdigital palmar foot pads on one hind foot are then treated with test material while the opposite hind foot is treated with the control material.
5. After treatment of all animals, an iodine solution (2% in 95% ETOH wt./vol.) is applied to both hind feet.
6. 30 minutes post treatment the hind feet are then painted with a suspension of starch and castor oil (50/50, wt./vol.).
7. 40 minutes post treatment Polaroid photos (3X, using Polaroid Type Film 669) are taken of both hind feet in the same frame.
1. The number of activated sweat glands in each of the four palmar foot pads is quantitated by manually counting the black dots observed in the photo of the control and test treated feet.
2. The ratio of the total number of secreting sweat glands on the control foot vs the total number of secreting sweat glands on the test foot is used to estimate the percent inhibition of sweat in the rat foot pad.
3. The following formula is used to calculate activity. [formula]

[2] = test system: single equine sweat glands; details: cited from earlier work

| Structure (SMILES) | Approx. % Inhibition ([1]; Concentration Tested 0.15%) | sweating responses [2] | further results |
| --- | --- | --- | --- |
| c1ccc2c(CC3=NCCN3)cccc2c1 [Naphazoline HCl, naphazoline HCl] | ~95% |  |  |
| Cc1cc(C(C)(C)C)c(O)c(C)c1CC1=NCCN1 [Oxymetazoline HCl, oxymetazoline HCl] | ~92% |  |  |
| Cc1cc(C(C)(C)C)cc(C)c1CC1=NCCN1 [Xylometazoline HCl, xylometazoline HCl] | ~80% |  | dose response of percent inhibition ([1]; 0.003-0.3% solutions): the percent inhibition increased with the increase in concentration of the test drug; Approx. % Inhibition ([1]; Concentration Tested 0.003%): ~30%; Approx. % Inhibition ([1]; Concentration Tested 0.03%): ~50%; Approx. % Inhibition ([1]; Concentration Tested 0.3%): ~88% |
| COc1ccc(OC)c(C(O)C(C)N)c1 (stereo not drawn) [methoxamine] |  | moderate sweating responses |  |
| CNC[C@H](O)c1cccc(O)c1 [phenylephrine] |  | moderate sweating responses |  |
